Measured values: PMC7554048, “FBI-1 enhanced the resistance of triple-negative breast cancer cells to chemotherapeutic agents via the miR-30c/PXR axis” (Cell Death & Disease, 2020)
Where two headings read alike, the source gives them in different places.

Legend:
[1] = Olaparib sustained in subcutaneous TNBC tumors after intratumoral injection, LC-MS/MS (half-life); format: in vivo, nude mice; conditions: nude, mouse, subcutaneous tumor tissue, other: injected into the subcutaneous tumors (intratumoral), read-out: Half life values of olaparib (t1/2) In subcutaneous tumors (converted)
Description: (§1) TNBC cells transfected with plasmids were used for the pharmacokinetic experiments to examine the amount of olaparib sustained in the cells. For the cell-based experiments, cells were treated with 1 μmol/L concentration of olaparib for 12 h[33]. Then, cells were harvested at indicated time-points. For the animal experiments, TNBC cells were injected into the subcutaneous position to form subcutaneous tumor tissues. After 2–3 weeks’ growth, when the tumor volumes reached 1500–2000 mm^3, the solution of olaparib was injected into the subcutaneous tumors. Then, the tumor tissues were harvested at indicated times[34],[35]. The olaparib in cells or tumor tissues was extracted by acetonitrile (ACN), and the amount of olaparib sustained in cells or tumor tissues at each time point was determined by liquid chromatography–mass spectrometry/mass spectrometry (LC-MS/MS), following the methods established by Krens et al.[36]. The sustaining rates of olaparib were calculated as (the amount of olaparib at each time)/(the amount of olaparib at 0-time) × 100%. The sustaining curves or the half-time life (t1/2) of olaparib was obtained by the sustained rates of olaparib.

[2] = system: TNBC PDC No. 3; assay: In vivo antitumor effect of olaparib on subcutaneous TNBC tumors; conditions: nude mice, oral administration once every two days, 4–5 weeks
Description: Female nude mice, 4–6 weeks old, were purchased from Beijing Si-Bei-Fu Corporation, China. The animal experiments were approved by the Institutional Animal Care and Use Committee of the Chinese PLA General Hospital, China. All animal experiments (n = 10 for each group; animals were randomly divided into the groups) were performed according to the UK Animals (Scientific Procedures) Act, 1986, and associated guidelines. TNBC cells transfected with plasmids were treated with olaparib via oral administration once every two days. After 4–5 weeks’ treatment, the tumor tissues of the mice were harvested. The tumor volumes or tumor weights were determined following the methods described by Jia et al.[37]. The inhibition rates of olaparib were calculated by the tumor volumes or tumor weights.

[3] = system: MDA-MB-436; assay: Cell-survival SRB assay; format: cell-based; conditions: Homo sapiens, MDA-MB-436, 48 h, read-out: The IC50 values of olaparib
Description: (§2) The TNBC cells were treated with the indicated concentration of agents (10, 3, 1, 0.3, 0.1, 0.03, or 0.01 μmol/L for olaparib) for 48 h. Then, cells were analyzed by the Sulforhodamine B (SRB) assay, following the methods provided by and Li et al.[23] and Guan et al.[24]. The relative survival cells were determined by the O.D. values (optical density values) at 510 nm. […] The IC50 values of agents were calculated from the inhibition rates[23],[24]. The colony formation experiments were performed following the method desicripted by Fang et al.[5]. TNBC cells were transfected with the plasmids and treated with solvent control or the olaparib. The cells were analyzed by the colony-formation.

[4] = system: PDC No. 2; assay: Cell-survival SRB assay; format: cell-based; conditions: Homo sapiens, 48 h, read-out: IC50 values of olparib
Description: as §2

[5] = system: HCC-1937; assay: Cell-survival SRB assay; format: cell-based; conditions: Homo sapiens, HCC1937, 48 h, read-out: The IC50 values of olaparib
Description: as §2

[6] = system: PDC No. 3; assay: Cell-survival SRB assay; format: cell-based; conditions: Homo sapiens, 48 h, read-out: IC50 values of olparib
Description: as §2

[7] = system: PDC No. 9; assay: Cell-survival SRB assay; format: cell-based; conditions: Homo sapiens, 48 h, read-out: IC50 values of olparib
Description: as §2

[8] = system: PDC No. 7; assay: Cell-survival SRB assay; format: cell-based; conditions: Homo sapiens, 48 h, read-out: IC50 values of olparib
Description: as §2

[9] = system: PDC No. 6; assay: Cell-survival SRB assay; format: cell-based; conditions: Homo sapiens, 48 h, read-out: IC50 values of olparib
Description: as §2

[10] = Olaparib sustained in cultured TNBC cells, LC-MS/MS (half-life); format: in vitro ADME, human; conditions: human
Description: as §1

O=C(c1cc(Cc2n[nH]c(=O)c3ccccc23)ccc1F)N1CCN(C(=O)C2CC2)CC1 [olaparib]
half-life ([1]; PDC No. 2, Control): 30.1 ± 6.81 h
half-life ([1]; PDC No. 2, siFBI-1): 53.7 ± 7.34 h
half-life ([1]; PDC No. 3, Control): 32.2 ± 9.21 h
half-life ([1]; PDC No. 3, FBI-1): 17.9 ± 8.65 h
half-life ([1]; PDC No. 3, siFBI-1): 62.7 ± 6.77 h
half-life ([1]; PDC No. 6, Control): 28.6 ± 9.84 h
half-life ([1]; PDC No. 6, siFBI-1): 43.6 ± 7.72 h
half-life ([1]; PDC No. 7, Control): 31.4 ± 9.95 h
half-life ([1]; PDC No. 7, siFBI-1): 58.2 ± 9.06 h
half-life ([1]; PDC No. 9, Control): 36.1 ± 8.33 h
half-life ([1]; PDC No. 9, FBI-1): 22.6 ± 4.36 h
subcutaneous growth of TNBC cells [2]: inhibited the subcutaneous growth of TNBC cells
IC50 ([3]; MDA-MB-436, FBI-1 + miR-30c, 48 h): 0.21 ± 0.02 µM
IC50 ([3]; MDA-MB-436, FBI-1, 48 h): 2.46 ± 0.79 µM
IC50 ([3]; MDA-MB-436, control, 48 h): 0.79 ± 0.28 µM
IC50 ([3]; MDA-MB-436, miR-30c + PXR^Mut, 48 h): 2.75 ± 0.4 µM
IC50 ([3]; MDA-MB-436, miR-30c, 48 h): 0.1 ± 0.03 µM
IC50 ([3]; MDA-MB-436, siFBI-1 + miR-30c inhibitor, 48 h): 1.82 ± 0.31 µM
IC50 ([3]; MDA-MB-436, siFBI-1, 48 h): 0.14 ± 0.01 µM
IC50 ([4]; PDC No. 2, control): 1.32 ± 0.25 µM
IC50 ([4]; PDC No. 2, siFBI-1, 48 h): 0.22 ± 0.02 µM
IC50 ([5]; HCC-1937, FBI-1 + miR-30c, 48 h): 0.24 ± 0.04 µM
IC50 ([5]; HCC-1937, FBI-1, 48 h): 3.7 ± 0.38 µM
IC50 ([5]; HCC-1937, control, 48 h): 0.9 ± 0.33 µM
IC50 ([5]; HCC-1937, miR-30c + PXR^Mut, 48 h): 4.9 ± 0.82 µM
IC50 ([5]; HCC-1937, miR-30c, 48 h): 0.1 ± 0.05 µM
IC50 ([5]; HCC-1937, siFBI-1 + miR-30c inhibitor, 48 h): 2.21 ± 0.51 µM
IC50 ([5]; HCC-1937, siFBI-1, 48 h): 0.13 ± 0.08 µM
IC50 ([6]; PDC No. 3, FBI-1, 48 h): 8.75 ± 1 µM
IC50 ([6]; PDC No. 3, control): 0.94 ± 0.1 µM
IC50 ([6]; PDC No. 3, ketoconazole + FBI-1, 48 h): 0.63 ± 0.11 µM
IC50 ([6]; PDC No. 3, siFBI-1, 48 h): 0.1 ± 0.05 µM
IC50 ([7]; PDC No. 9, FBI-1, 48 h): 9.88 ± 0.65 µM
IC50 ([7]; PDC No. 9, control): 0.85 ± 0.33 µM
IC50 ([7]; PDC No. 9, ketoconazole + FBI-1, 48 h): 1.64 ± 0.52 µM
IC50 ([8]; PDC No. 7, control): 2.04 ± 0.77 µM
IC50 ([8]; PDC No. 7, siFBI-1, 48 h): 0.33 ± 0.1 µM
IC50 ([9]; PDC No. 6, control): 1.74 ± 0.82 µM
IC50 ([9]; PDC No. 6, siFBI-1, 48 h): 0.25 ± 0.04 µM
half-life at 1 μmol/L ([10]; HCC-1937, FBI-1 + miR-30c, read-out: half life values of olaparib (t1/2) (converted)): 57.3 ± 8.91 h
half-life at 1 μmol/L ([10]; HCC-1937 TNBC cells, HCC-1937, FBI-1, read-out: half life values of olaparib (t1/2) (converted)): 9.44 ± 0.57 h
half-life at 1 μmol/L ([10]; HCC-1937 TNBC cells, HCC-1937, control, read-out: half life values of olaparib (t1/2) (converted)): 31.2 ± 4.67 h
half-life at 1 μmol/L ([10]; HCC-1937 TNBC cells, HCC-1937, miR-30c + PXR^Mut, read-out: half life values of olaparib (t1/2) (converted)): 8.55 ± 0.3 h
half-life at 1 μmol/L ([10]; HCC-1937 TNBC cells, HCC-1937, miR-30c, read-out: half life values of olaparib (t1/2) (converted)): 68.3 ± 13.4 h
half-life at 1 μmol/L ([10]; HCC-1937 TNBC cells, HCC-1937, siFBI-1 + miR-30c inhibitor, read-out: half life values of olaparib (t1/2) (converted)): 18.6 ± 4.08 h
half-life at 1 μmol/L ([10]; HCC-1937 TNBC cells, HCC-1937, siFBI-1, read-out: half life values of olaparib (t1/2) (converted)): 50.2 ± 5.62 h
half-life at 1 μmol/L ([10]; MDA-MB-436, FBI-1 + miR-30c, read-out: half life values of olaparib (t1/2) (converted)): 44.1 ± 5.75 h
half-life at 1 μmol/L ([10]; MDA-MB-436 TNBC cells, MDA-MB-436, FBI-1, read-out: half life values of olaparib (t1/2) (converted)): 13.4 ± 2.75 h
half-life at 1 μmol/L ([10]; MDA-MB-436 TNBC cells, MDA-MB-436, control, read-out: half life values of olaparib (t1/2) (converted)): 28.9 ± 4.32 h
half-life at 1 μmol/L ([10]; MDA-MB-436 TNBC cells, MDA-MB-436, miR-30c + PXR^Mut, read-out: half life values of olaparib (t1/2) (converted)): 11.2 ± 4.33 h
half-life at 1 μmol/L ([10]; MDA-MB-436 TNBC cells, MDA-MB-436, miR-30c, read-out: half life values of olaparib (t1/2) (converted)): 51.3 ± 7.14 h
half-life at 1 μmol/L ([10]; MDA-MB-436 TNBC cells, MDA-MB-436, siFBI-1 + miR-30c inhibitor, read-out: half life values of olaparib (t1/2) (converted)): 20.3 ± 5.48 h
half-life at 1 μmol/L ([10]; MDA-MB-436 TNBC cells, MDA-MB-436, siFBI-1, read-out: half life values of olaparib (t1/2) (converted)): 47.3 ± 7.42 h
half-life at 1 μmol/L ([10]; TNBC cells PDC No. 2, PDC No. 2, Control, read-out: Half life values of olaparib (t1/2) In cultured cells (converted)): 21.7 ± 6.89 h
half-life at 1 μmol/L ([10]; TNBC cells PDC No. 2, PDC No. 2, siFBI-1, read-out: Half life values of olaparib (t1/2) In cultured cells (converted)): 60.8 ± 4.85 h
half-life at 1 μmol/L ([10]; TNBC cells PDC No. 3, PDC No. 3, Control (Table 3), read-out: Half life values of olaparib (t1/2) In cultured cells (converted)): 25 ± 7.82 h
half-life at 1 μmol/L ([10]; TNBC cells PDC No. 3, PDC No. 3, Control (Table 4), read-out: Half-life values of olparib (t1/2) (converted)): 27.4 ± 4.3 h
half-life at 1 μmol/L ([10]; TNBC cells PDC No. 3, PDC No. 3, FBI-1 (Table 3), read-out: Half life values of olaparib (t1/2) In cultured cells (converted)): 11.7 ± 3.88 h
half-life at 1 μmol/L ([10]; TNBC cells PDC No. 3, PDC No. 3, FBI-1 (Table 4), read-out: Half-life values of olparib (t1/2) (converted)): 10.6 ± 4.54 h
half-life at 1 μmol/L ([10]; TNBC cells PDC No. 3, PDC No. 3, siFBI-1, read-out: Half life values of olaparib (t1/2) In cultured cells (converted)): 59.2 ± 8.91 h
half-life at 1 μmol/L ([10]; TNBC cells PDC No. 3, with ketoconazole (concentration not stated), PDC No. 3, FBI-1 + ketoconazole, read-out: Half-life values of olparib (t1/2) (converted)): 26.2 ± 3.85 h
half-life at 1 μmol/L ([10]; TNBC cells PDC No. 6, PDC No. 6, Control, read-out: Half life values of olaparib (t1/2) In cultured cells (converted)): 19.4 ± 5.83 h
half-life at 1 μmol/L ([10]; TNBC cells PDC No. 6, PDC No. 6, siFBI-1, read-out: Half life values of olaparib (t1/2) In cultured cells (converted)): 51.4 ± 11.5 h
half-life at 1 μmol/L ([10]; TNBC cells PDC No. 7, PDC No. 7, Control, read-out: Half life values of olaparib (t1/2) In cultured cells (converted)): 21 ± 5.01 h
half-life at 1 μmol/L ([10]; TNBC cells PDC No. 7, PDC No. 7, siFBI-1, read-out: Half life values of olaparib (t1/2) In cultured cells (converted)): 55.5 ± 9.97 h
half-life at 1 μmol/L ([10]; TNBC cells PDC No. 9, PDC No. 9, Control (Table 3), read-out: Half life values of olaparib (t1/2) In cultured cells (converted)): 33.8 ± 5.5 h
half-life at 1 μmol/L ([10]; TNBC cells PDC No. 9, PDC No. 9, Control (Table 4), read-out: Half-life values of olparib (t1/2) (converted)): 36.3 ± 6.64 h
half-life at 1 μmol/L ([10]; TNBC cells PDC No. 9, PDC No. 9, FBI-1 (Table 3), read-out: Half life values of olaparib (t1/2) In cultured cells (converted)): 18.1 ± 4.44 h
half-life at 1 μmol/L ([10]; TNBC cells PDC No. 9, PDC No. 9, FBI-1 (Table 4), read-out: Half-life values of olparib (t1/2) (converted)): 14.9 ± 2.88 h
half-life at 1 μmol/L ([10]; TNBC cells PDC No. 9, with ketoconazole (concentration not stated), PDC No. 9, FBI-1 + ketoconazole, read-out: Half-life values of olparib (t1/2) (converted)): 37.8 ± 5.55 h
